Experimental data published in patent US6710049B2, “Azole compounds as anti-fungal agents” (Ranbaxy Laboratories Limited, priority 2000, dated 2004).
In brackets after ≈: the same amount, converted by molar mass.

Tests used:
[1] = tested on: P variotii 22319; test: MIC determination (NCCLS broth method); format: cell-based, Paecillomyces variotii
Excerpt: (§1) The in-vitro evaluation of the antifungal activity of the compounds can be performed by determining the minimum inhibitory concentration (MIC) as shown in Table 1 which is the concentration of the test compound in Rosewell Park Memorial Institute (RPMI) 1640 liquid medium buffered with 3-(Morpholino)propanesulphonic acid (MOPS) to pH 7, at which there is significant inhibition of the particular fungi. In practice the National Committee for Clinical Laboratory Standard (NCCLS) M27A document for Candida and Cryptococcus and M38P for Aspergillus was used to determine the MIC against yeast and filamentous fungi with suitable modifications for dermatophytes to other filamentous fungi. Three quality control strains were included each time the MIC were determined and readings recorded only when the Quality Control results fell into the acceptable range. After MIC results had been recorded, 100 μl from each of the well showing no growth was spread over Sabouraud Dextrose Agar (SDA) to determine the minimum fungicidal concentration (MFC) as shown in Table 2.

[2] = tested on: C albicans A-26; test: MIC determination (NCCLS broth method); format: cell-based, Candida albicans
Excerpt: as §1

[3] = tested on: C albicans Y01.19; test: MIC determination (NCCLS broth method); format: cell-based, Candida albicans
Excerpt: as §1

[4] = tested on: A flavus E2 - 1043; test: MIC determination (NCCLS broth method); format: cell-based
Excerpt: as §1

[5] = tested on: A flavus E3 - 1044; test: MIC determination (NCCLS broth method); format: cell-based
Excerpt: as §1

[6] = tested on: A flavus E4 - 1042; test: MIC determination (NCCLS broth method); format: cell-based
Excerpt: as §1

[7] = tested on: A flavus P2 - 1045; test: MIC determination (NCCLS broth method); format: cell-based
Excerpt: as §1

[8] = tested on: A flavus P3 - 1041; test: MIC determination (NCCLS broth method); format: cell-based
Excerpt: as §1

[9] = tested on: A niger E5 - 1047; test: MIC determination (NCCLS broth method); format: cell-based
Excerpt: as §1

[10] = tested on: A niger P1 - 1046; test: MIC determination (NCCLS broth method); format: cell-based
Excerpt: as §1

[11] = tested on: Alternaria 1051; test: MIC determination (NCCLS broth method); format: cell-based
Excerpt: as §1

[12] = tested on: C glabrata 90030; test: MIC determination (NCCLS broth method); format: cell-based
Excerpt: as §1

[13] = tested on: C krusei 6258; test: MIC determination (NCCLS broth method); format: cell-based
Excerpt: as §1

[14] = tested on: C krusei 766.1; test: MIC determination (NCCLS broth method); format: cell-based
Excerpt: as §1

[15] = tested on: C parapsilosis 22019; test: MIC determination (NCCLS broth method); format: cell-based
Excerpt: as §1

[16] = tested on: C tropicalis 750; test: MIC determination (NCCLS broth method); format: cell-based
Excerpt: as §1

[17] = tested on: Fusarium 1050; test: MIC determination (NCCLS broth method); format: cell-based
Excerpt: as §1

[18] = tested on: Fusarium 1827C; test: MIC determination (NCCLS broth method); format: cell-based
Excerpt: as §1

[19] = tested on: Fusarium 2960C; test: MIC determination (NCCLS broth method); format: cell-based
Excerpt: as §1

[20] = tested on: Mucor (Ceylon); test: MIC determination (NCCLS broth method); format: cell-based
Excerpt: as §1

[21] = tested on: Penicillium 1641; test: MIC determination (NCCLS broth method); format: cell-based
Excerpt: as §1

[22] = tested on: Penicillium 191; test: MIC determination (NCCLS broth method); format: cell-based
Excerpt: as §1

[23] = tested on: Penicillium 2548; test: MIC determination (NCCLS broth method); format: cell-based
Excerpt: as §1

[24] = tested on: Penicillium 3162; test: MIC determination (NCCLS broth method); format: cell-based
Excerpt: as §1

[25] = tested on: Penicillium H - 1048; test: MIC determination (NCCLS broth method); format: cell-based
Excerpt: as §1

[26] = tested on: Penicillium I - 1049; test: MIC determination (NCCLS broth method); format: cell-based
Excerpt: as §1

[27] = tested on: Rhizopus (Ceylon); test: MIC determination (NCCLS broth method); format: cell-based
Excerpt: as §1

[28] = tested on: Rhizopus 1052; test: MIC determination (NCCLS broth method); format: cell-based
Excerpt: as §1

[29] = tested on: C neoformans I; test: MIC determination (NCCLS broth method); format: cell-based, Cryptococcus neoformans
Excerpt: as §1

[30] = tested on: C neoformans M-106; test: MIC determination (NCCLS broth method); format: cell-based, Cryptococcus neoformans
Excerpt: as §1

[31] = tested on: Penicilliuim 2306; test: MIC determination (NCCLS broth method); format: cell-based, Penicillium
Excerpt: as §1

[32] = tested on: A fumigatus 1008; test: MFC determination (subculture on Sabouraud Dextrose Agar); format: cell-based, Aspergillus fumigatus
Excerpt: as §1

[33] = tested on: All Candida isolates; test: Comparative in vitro MIC, isolate panel; format: cell-based
Excerpt: as §1
(§2) A comparative in vitro and in vivo biologically activity data of the compound of our invention, 2-{[1R,2R]-2-(2,4-Difluorophenyl)-2-hydroxy-1-methyl-3-(1H-1,2,4-triazole-1-yl)propyl}-4-[(2′,2′,3′,3′-tetrafluoropropoxyphenyl)-3-(2H,4H)-1,2,4-thiotriazolone (Compound No. 3) with 2-[(1R,2R)-2-(2,4-difluorophenyl)-2-hydroxy-1-methyl-3-(1H-1,2,4-triazol-1-yl)propyl]-4-(2′,2′,3′,3′-tetraflouropropoxyphenyl)-3(2H,4H)-1,2,4-triazolone (TAK 187) and standard antifungal pharmaceuticals is given below: […]

[34] = tested on: All Filamentous isolates; test: Comparative in vitro MIC, isolate panel; format: cell-based
Excerpt: as §1, §2

[35] = tested on: All fungal pathogens; test: Comparative in vitro MIC, isolate panel; format: cell-based
Excerpt: as §1, §2

[36] = tested on: Aspergillus fumigatus isolates; test: Comparative in vitro MIC, isolate panel; format: cell-based
Excerpt: as §1, §2

[37] = tested on: Fusarium spp. isolates; test: Comparative in vitro MIC, isolate panel; format: cell-based
Excerpt: as §1, §2

[38] = tested on: Penicillium spp. isolates; test: Comparative in vitro MIC, isolate panel; format: cell-based
Excerpt: as §1, §2

[39] = tested on: Rhizoupus spp. isolates; test: Comparative in vitro MIC, isolate panel; format: cell-based
Excerpt: as §1, §2

C[C@@H]1[C@H](O)[C@@H](C)/C=C/C=C/C=C/C=C/C=C/C=C/C=C/[C@H](O[C@@H]2O[C@H](C)[C@@H](O)[C@H](N)[C@@H]2O)C[C@@H]2O[C@](O)(C[C@@H](O)C[C@@H](O)[C@H](O)CC[C@@H](O)C[C@@H](O)CC(=O)O[C@H]1C)C[C@H](O)[C@H]2C(=O)O [Amphotericin-B, Amphotericin B]
Minimum Inhibitory Concentration (MIC) [1]: 0.03 µg/mL
Minimum Inhibitory Concentration (MIC) [2]: 0.25 µg/mL
Minimum Inhibitory Concentration (MIC) [3]: 0.125 µg/mL
Minimum Inhibitory Concentration (MIC) [4]: 1 µg/mL
Minimum Inhibitory Concentration (MIC) [5]: 1 µg/mL
Minimum Inhibitory Concentration (MIC) [6]: 0.125 µg/mL
Minimum Inhibitory Concentration (MIC) [7]: 1 µg/mL
Minimum Inhibitory Concentration (MIC) [8]: 0.5 µg/mL
Minimum Inhibitory Concentration (MIC) [9]: 0.25 µg/mL
Minimum Inhibitory Concentration (MIC) [10]: 0.25 µg/mL
Minimum Inhibitory Concentration (MIC) [11]: 1 µg/mL
Minimum Inhibitory Concentration (MIC) [12]: 0.25 µg/mL
Minimum Inhibitory Concentration (MIC) [13]: 0.25 µg/mL
Minimum Inhibitory Concentration (MIC) [14]: 0.25 µg/mL
Minimum Inhibitory Concentration (MIC) [15]: 0.25 µg/mL
Minimum Inhibitory Concentration (MIC) [16]: 0.25 µg/mL
Minimum Inhibitory Concentration (MIC) [17]: 0.5 µg/mL
Minimum Inhibitory Concentration (MIC) [18]: >128 µg/mL
Minimum Inhibitory Concentration (MIC) [19]: 0.5 µg/mL
Minimum Inhibitory Concentration (MIC) [20]: 0.06 µg/mL
Minimum Inhibitory Concentration (MIC) [21]: 0.06 µg/mL
Minimum Inhibitory Concentration (MIC) [22]: 0.25 µg/mL
Minimum Inhibitory Concentration (MIC) [23]: 0.03 µg/mL
Minimum Inhibitory Concentration (MIC) [24]: 0.25 µg/mL
Minimum Inhibitory Concentration (MIC) [25]: 0.25 µg/mL
Minimum Inhibitory Concentration (MIC) [26]: 0.25 µg/mL
Minimum Inhibitory Concentration (MIC) [27]: 64 µg/mL
Minimum Inhibitory Concentration (MIC) [28]: 0.06 µg/mL
Minimum Inhibitory Concentration (MIC) [29]: 0.06 µg/mL
Minimum Inhibitory Concentration (MIC) [30]: 0.03 µg/mL
Minimum Inhibitory Concentration (MIC) [31]: 0.25 µg/mL
Minimum Fungicidal Concentration (MFC) [32]: 1 µg/mL
MIC50 [33]: 0.25 µg/mL (≈ 0.271 µM)
MIC90 [33]: 0.25 µg/mL (≈ 0.271 µM)
MIC G.M. [33]: 0.22 µg/mL (≈ 0.238 µM)
MIC50 [34]: 0.25 µg/mL (≈ 0.271 µM)
MIC90 [34]: 0.5 µg/mL (≈ 0.541 µM)
MIC G.M. [34]: 0.22 µg/mL (≈ 0.238 µM)
MIC50 [35]: 0.25 µg/mL (≈ 0.271 µM)
MIC90 [35]: 0.5 µg/mL (≈ 0.541 µM)
MIC G.M. [35]: 0.21 µg/mL (≈ 0.227 µM)
MIC50 [36]: 0.25 µg/mL (≈ 0.271 µM)
MIC90 [36]: 0.5 µg/mL (≈ 0.541 µM)
MIC G.M. [36]: 0.27 µg/mL (≈ 0.292 µM)
MIC50 [37]: 0.5 µg/mL (≈ 0.541 µM)
MIC90 [37]: 2 µg/mL (≈ 2.16 µM)
MIC G.M. [37]: 0.841 µg/mL (≈ 0.91 µM)
MIC50 [38]: 0.25 µg/mL (≈ 0.271 µM)
MIC90 [38]: 0.25 µg/mL (≈ 0.271 µM)
MIC G.M. [38]: 0.144 µg/mL (≈ 0.156 µM)
MIC50 [39]: 0.125 µg/mL (≈ 0.135 µM)
MIC90 [39]: 0.25 µg/mL (≈ 0.271 µM)
MIC G.M. [39]: 0.177 µg/mL (≈ 0.192 µM)
